Measured values as given in publication PMC7504721, “Targeting the Initiator Protease of the Classical Pathway of Complement Using Fragment-Based Drug Discovery” (Molecules, 2020).

Target: T1, full-length C1r (Homo sapiens, UniProt P00736)
T1 construct: purchased Complement Technology (CompTech)
T1 sequence (P00736 18-463 limits assumed): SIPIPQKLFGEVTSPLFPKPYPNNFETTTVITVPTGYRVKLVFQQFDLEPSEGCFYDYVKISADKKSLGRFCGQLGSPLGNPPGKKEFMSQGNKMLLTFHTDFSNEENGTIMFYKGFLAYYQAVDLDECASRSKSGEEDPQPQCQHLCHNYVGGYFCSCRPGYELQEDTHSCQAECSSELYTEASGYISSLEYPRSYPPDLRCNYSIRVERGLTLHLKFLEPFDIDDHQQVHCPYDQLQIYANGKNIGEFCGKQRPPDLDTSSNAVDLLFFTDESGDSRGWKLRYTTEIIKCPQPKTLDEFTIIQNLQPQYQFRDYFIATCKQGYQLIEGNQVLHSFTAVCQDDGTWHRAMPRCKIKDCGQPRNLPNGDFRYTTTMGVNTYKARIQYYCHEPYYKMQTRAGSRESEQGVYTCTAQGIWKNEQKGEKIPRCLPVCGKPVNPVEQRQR
T1 sequence (P00736 464-705 limits assumed): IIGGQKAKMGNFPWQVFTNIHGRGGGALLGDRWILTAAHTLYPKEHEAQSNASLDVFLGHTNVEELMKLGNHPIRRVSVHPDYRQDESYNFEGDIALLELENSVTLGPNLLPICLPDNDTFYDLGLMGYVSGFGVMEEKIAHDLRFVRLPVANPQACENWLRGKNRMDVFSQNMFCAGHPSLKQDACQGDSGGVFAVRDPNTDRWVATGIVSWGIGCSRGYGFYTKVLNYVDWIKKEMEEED
Experiment: SPR domain mapping, full-length C1r surface
Type: binding
Details: duplicate
Text: Figure 5 Selectivity and mechanistic analysis of CMP-1611 and CMP-1696. (A) Chemical structure of CMP-1611. (B) Chemical structure of CMP-1696. (C) Dose-dependent inhibition by CMP-1611 and CMP-1696 in a classical pathway-specific ELISA. Data were fit with GraphPad Prism using non-linear regression with a log(inhibitor) vs. response model. […] The CMP-778 inhibitory response could not be fit to a dose-response inhibition model. (D) Complement pathway selectivity of CMP-1611 and CMP-1696. Compounds were assessed for their ability to inhibit activation of complement via the lectin and alternative pathways using single doses of 500 μM compound in triplicate. To ensure only lectin pathway activation, 2% (v/v) C1q-depleted serum (CompTech) was used and mannan was used as the activator. To match serum sources and amounts for this assay, the classical pathway assays were repeated here using serum from CompTech at 2% (v/v) final concentration. Alternative pathway activation assays were performed using 20% (v/v) serum (CompTech), alternative pathway buffers, and C3b detection (see Methods and Materials for details). […] We then injected each compound simultaneously over the three surfaces at 500 μM and measured binding responses. […] All sensorgrams were reference and blank subtracted and analyzed using T200 Evaluation Software (GE Healthcare, Chicago, IL, USA).

Row | relative SPR binding response, full-length C1r (10 µM Futhan) | relative SPR binding response, full-length C1r (500 µM compound) | SMILES
1 | bound C1r and C1r-CCP2-SP similarly | – | N=C(N)c1ccc2cc(OC(=O)c3ccc(N=C(N)N)cc3)ccc2c1 [Futhan, reference compound]
2 | – | high binding | COCc1nc(-c2ccc(OC3CNC3)cc2)no1 [CMP-1696]
